Measured values published in patent EP1510220B1 (priority 1993, dated 1994).

Tests used:
Format in all cases: cell-based
[1] = system: Rat vascular smooth muscle cells; test: Proliferation of rat vascular smooth muscle cells by cell counting
Protocol: Cell culture, DNA synthesis assay and cell counting. Rat vascular smooth muscle cells were cultured after enzymatic dispersion of the aortic media from 12-17 week old Wistar rats as described in Grainger et al., Biochem. J., 277: 145-151, 1991. When the cells reached confluence (after about 6 days) the cells were released with trypsin/EDTA (available from Gibco) and diluted 1:2 in Dulbecco's modification of Eagle's medium (DMEM; available from ICN/Flow) supplemented with 100 U/ml penicillin and 10% fetal calf serum (FCS). The cells were then replated on tissue culture plastic (available from ICN/Flow) at approximately 1 x 10^4 cells/cm^2. The cells were subcultured repeatedly in this way when confluence was attained (about every 4 days), and the cells were used between passages 6 and 12.
(§1) Cells were prepared for counting by hemocytometer from triplicate culture dishes as described in Grainger et al., Biochem. J., 277:145-151, 1991. Cells were also counted by direct microscopic observation of gridded culture dishes. The grids were scored into the plastic on the inner surface, so that the cells could not migrate into or out of the area being counted during the experiment. Cells in each of four squares in two separate wells were counted at each time point. All cell counting experiments were repeated on at least three separate cultures.
A stock solution of tamoxifen (5 mM; available from ICI Pharmaceuticals) was made up in 10% ethanol (EtOH) and diluted in DMEM and 10% FCS to give the final concentration. The effects of each tamoxifen concentration were compared with the effects observed in control wells containing the same final concentration of the ethanol vehicle. Recombinant TGF-beta (available from Amersham International) was dissolved in 25 mM Tris/Cl to give a 5 microgram/ml stock solution and sterile filtered through a Spinnex Tube (such as a Centrex Disposable Microfilter Unit available from Rainin Instrument Company, Inc., Woburn, MA). Neutralizing antiserum to TGF-beta (BDA19; available from R & D Systems) was reconstituted in sterile MilliQ water (available from Millipore Corporation, Bedford, MA). At 10 micrograms/ml, this antibody completely abolished the activity of 10 ng/ml recombinant TGF-beta on subcultured (8th passage) vascular smooth muscle cells.

[2] = system: Rat adventitial fibroblasts; test: Proliferation of adventitial fibroblasts
Protocol: Rat adventitial fibroblasts were cultured as described in Grainger et al., Biochem. J., 283: 403-408, 1992. Briefly, the aortae were treated with collagenase (3 mg/ml) for 30 minutes at 37°C. The tunica adventitia was stripped away from the media. The adventitia was dispersed for 2 hours in elastase (1 mg/ml) and collagenase (3 mg/ml) dissolved in medium M199 (available from ICN/Flow). The cells were then spun out (900 x g, 3 minutes), resuspended in DMEM + 10% FCS and plated out at 8 x 10^4 cells/cm^2 on tissue culture plastic. When the cells reached confluence (after about 10 days), they were subcultured as described for vascular smooth muscle cells. Adventitial fibroblasts were subcultured every 3 days at 1:3 dilution and used between passages 3 and 9.
as §1

[3] = Proliferation of explant-derived (EX) human VSMC cultures; conditions: human, aortic vsmc ex cultures
Protocol: (§2) Human aortic VSMC cultures. Adult human VSMC were obtained from 6 transplant donors (either sex, age range from 3 to 54 years) using the enzyme dispersal or explant technique. In one case, the same donor (a person) was used to establish both an enzyme-dispersed (ED) and explant-derived (EX) cell culture. Prior to enzyme-dispersion or explanting treatment, human aortas were obtained within 18 h of death. The endothelium layer was removed with a scalpel blade and strips of smooth muscle cells (tunica media) were removed with forceps and chopped into small pieces (1 mm^3).
(§3) EX Cultures. The aortic pieces were washed once with D-MEM + 10% FCS, resuspended in a small volume of fresh D-MEM + 10% FCS, and transferred to culture flasks or Petri dishes. The pieces were allowed to sediment onto the plastic and were evenly distributed (≈ 4 pieces/cm^2). Cells started to grow out from the explants after 3-7 d in culture. The aortic pieces were removed during the third week in culture, and the cells adhering to the plastic were allowed to grow to confluence for a further week. The cells were then subcultured every 4-5 days by releasing them with trypsin/EDTA and diluting them 1:2 in D-MEM + 10% FCS. Subcultured cells were incubated with fresh D-MEM + 20% FCS as described for ED cultures.
(§4) Cell counting, DNA synthesis assays and assays for total and active TGF-beta were performed as described in Example 7.

human EX cultures = test: as above; conditions: Homo sapiens, VSMC
Protocol: as §2, §3, §4

## CC/C(=C(\c1ccccc1)c1ccc(OCCN(C)C)cc1)c1ccccc1 [tamoxifen, trans-2-[4-(1,2-diphenyl-1-butenyl)phenoxy]-N,N-dimethylethylamine]
[1]; 33 micromolar
  cells that had divided by 64 hours: more than 90%
[1]; 33 micromolar, n=3, vehicle 35 +/-3 hours
  time taken for 50% of the cells to divide after stimulation by serum: 54 ± 2 h
[1]; 33 micromolar, time lapse photomicroscopy
  onset of increase in cell number after serum stimulation: no significant increase in cell number in the presence of tamoxifen until after 48 hours
[1]; 50 micromolar with 10 micrograms/ml neutralizing antiserum against TGF-beta, 10% FCS
  rate of proliferation: proliferated at the same rate as control cells
[1]; 50 micromolar, 96 hours following the addition of serum, n=3, 5760 min, 50 µM
  reduction of the increase in cell number: 66% +/-5.2
[1]; Rattus norvegicus, 50 micromolar, 96 hours following the addition of serum, n=3, read-out: reduction of the increase in cell number
  inhibition at 50 µM: 66%
[1]; Rattus norvegicus, DMEM + 10% FCS, read-out: concentrations giving maximal inhibition of the rate of proliferation
  IC (maximal): > 33 µM
[1]; rat ED VSMC, read-out: half-maximal inhibition of proliferation
  IC50: 2000 to 5000 nM
[2]; concentrations of up to 50 micromolar
  rate of proliferation of subcultured adventitial fibroblasts: did not reduce the rate of proliferation
[2]; selectivity, vascular smooth muscle cells vs adventitial fibroblasts
  ED50 lower for vascular smooth muscle cells than for adventitial fibroblasts: at least 10 fold
[3]
  MCC: > 33 µM
Human EX cultures; 0.5 µM, 96 h in D-MEM + 20% FCS, vs ethanol vehicle, read-out: inhibition of the increase in cell number
  inhibition at 0.5 µM: 27 ± 2%
Human EX cultures; 5 µM, read-out: inhibition of the increase in cell number
  inhibition at 5 µM: 33 ± 8%
Human EX cultures; read-out: half-maximal inhibitory dose
  IC50: 30 to 100 nM
